The results in this text go back to patent US6444617B1, “Fused-heterocycle dicarboxylic acid diamide derivatives or salts thereof, herbicide and usage thereof” (Nihon Nohyaku Co., Ltd., priority 1998, dated 2002).

What all share (format): in vivo
Data set [1] deals with barnyard grass (Echinochloa crus-galli Beauv.). Kind of data set: Test Example 1: herbicidal effect on paddy field weeds before emergence. The following applies: Dosage 5 kg/ha. Here is the method:
(§1) Test for Herbicidal Effect on Paddy Field Weeds Before Emergence Soil was filled into 1/10000 are pots and brought into a state of paddy field, in which seeds of barnyard grass (Echinochloa crus-galli Beauv.) and bulrush (Scirpus juncoides Roxb.) were made to be before germination. The soil in the pots were treated with a solution containing a predetermined dosage of a chemical agent comprising a compound of the present invention listed in Tables 1 to 14. Twenty one days after the treatment, the herbicidal effect was investigated, the result was compared with that in untreated plot to calculate the weed-controlling rate, and the herbicidal effect was judged according to the following criterion: […]

For data set [2], the system named is bulrush (Scirpus juncoides Roxb.). Described as above. The following applies: Dosage 5 kg/ha. On the procedure: as §1
Data set [3] has as its system barnyard grass (Echinochloa crus-galli Beauv.). The experiment in a line: Test Example 2: herbicidal effect on paddy field weeds after emergence. The note with it: Dosage 5 kg/ha; one-leaved stage; 21 days after treatment. On the procedure:
(§2) Test for Herbicidal Effect on Paddy Field Weeds After Emergence. Soil was filled into 1/10000 are pots and brought into a state of paddy field, in which seeds of barnyard grass (Echinochloa crus-galli Beauv.), bulrush (Scirpus juncoides Roxb.) and monochoria (Monochoria vaginalis Presl) were made to reach one-leaved stage. The soil in the pots were treated with a solution containing a predetermined dosage of a chemical agent comprising a compound of the present invention listed in Tables 1 to 14. Twenty one days after the treatment, the herbicidal effect was investigated and the result was compared with that in untreated plot to calculate the weed-controlling rate, and the herbicidal effect was judged according to the same criterion as in Test Example 1.

Data set [4] has as its system bulrush (Scirpus juncoides Roxb.). The data set is described as above. The note with it: Dosage 5 kg/ha; one-leaved stage; 21 days after treatment. Here is the method: as §2
The test system of data set [5] is monochoria (Monochoria vaginalis Presl). Described as above. The note with it: Dosage 5 kg/ha; one-leaved stage; 21 days after treatment. Here is the method: as §2
In data set [6] the test system is barnyard grass (Echinochloa crus-galli Beauv.), Ec. Kind of data set: Test Example 3: herbicidal effect on upland weeds before emergence. The note with it: dosage 5 kg/ha. On the procedure: (§3) Herbicidal Effect on Upland Weeds Before Emergence […] Then, a liquid preparation of an agent comprising a prescribed concentration of a compound of the present invention (the compounds listed in Tables 1-14) as active ingredient was sprayed. Fourteen days after the treatment, the herbicidal effect was investigated, from which weed-killing rate was calculated in the same manner as in Test Example 1, and the herbicidal effect was judged.

For data set [7], the system named is bird's eye speedwell (Veronica persica Poir.), Vp. The data set is described as above. The following applies: dosage 5 kg/ha. On the procedure:
as §3

For data set [8], the system named is cleavers (Galium aparine L.), Ga. Described as above. The following applies: dosage 5 kg/ha. Here is the method: as §3
The test system of data set [9] is cocklebur (Xanthium strumarium L.), Xs. The description is as above. The following applies: dosage 5 kg/ha. On the procedure:
as §3

Data set [10] has as its system forxtail grass (Alopecurus aequalis var. amurensis Ohwi), Am. The data set is described as above. The following applies: foxtail grass, dosage 5 kg/ha. Here is the method: as §3
The subject of data set [11] is velvetleaf (Abutilon theophtasti L.), At. The data set is described as above. The following applies: dosage 5 kg/ha. On the procedure:
as §3

For data set [12], the system named is soybean plant (So). Kind of data set: Test Example 3: phytotoxicity to upland crop plants, treatment before emergence. The note with it: dosage 5 kg/ha. Here is the method: (§4) Herbicidal Effect on Upland Weeds Before Emergence […] Then, a liquid preparation of an agent comprising a prescribed concentration of a compound of the present invention (the compounds listed in Tables 1-14) as active ingredient was sprayed. Fourteen days after the treatment, the herbicidal effect was investigated, from which weed-killing rate was calculated in the same manner as in Test Example 1, and the herbicidal effect was judged. At the same time, phytotoxicity to soybean plant and wheat was investigated and judged according to the criterion mentioned below.

The subject of data set [13] is wheat (Wh). Described as above. The following applies: dosage 5 kg/ha. On the procedure:
as §4

For data set [14], the system named is barnyard grass (Echinochloa crus-galli Beauv.), Ec. The experiment in a line: Test Example 4: herbicidal effect on upland weeds after emergence. The note with it: dosage 5 kg/ha; sprayed after emergence; judged 14 days after treatment. The text has this:
(§5) Herbicidal Effect on Upland Weeds After Emergence Polyethylene-made vats having a size of 10 cm (length)×20 cm (width)×5 cm (height) were filled with soil, sown with seeds of the following noxious upland weeds and with seeds of soybean plant and wheat as upland crop plants, and then covered with soil. The plants were made to grow up until they reached the leaf-stages mentioned below, after which an agent comprising a prescribed concentration of a compound of the present invention (listed in Tables 1 to 14) as active ingredient was sprayed. Fourteen days after the treatment, the herbicidal effect was investigated, from which weed-killing rate was calculated in the same manner as in Test Example 1 and the results were judged. […] Sample weeds, their leaf stages, and leaf stages of soybean plant and wheat were as follows: [table]

Data set [15] relates to bird's eye speedwell (Veronica persica Poir.), Vp. The description is as above. The following applies: dosage 5 kg/ha; sprayed after emergence; judged 14 days after treatment.
From the text: as §5

For data set [16], the system named is cleavers (Galium aparine L.), Ga. The data set is described as above. The note with it: dosage 5 kg/ha; sprayed after emergence; judged 14 days after treatment.
From the text: as §5

The test system of data set [17] is cocklebur (Xanthium strumarium L.), Xs. The data set is described as above. The following applies: dosage 5 kg/ha; sprayed after emergence; judged 14 days after treatment.
From the text: as §5

The subject of data set [18] is forxtail grass (Alopecurus aequalis var. amurensis Ohwi), Am. Described as above. The note with it: dosage 5 kg/ha; sprayed after emergence; judged 14 days after treatment.
From the text: as §5

Data set [19] relates to velvetleaf (Abutilon theophtasti L.), At. Described as above. The following applies: dosage 5 kg/ha; sprayed after emergence; judged 14 days after treatment.
From the text: as §5

Data set [20] relates to soybean plant. Kind of data set: Test Example 4: phytotoxicity to upland crop plants, treatment after emergence. The following applies: dosage 5 kg/ha, sprayed after emergence, judged 14 days after treatment.
From the text: as §5

The subject of data set [21] is wheat. The data set is described as above. The following applies: dosage 5 kg/ha, sprayed after emergence, judged 14 days after treatment.
From the text: as §5

As to `CCCNC(=O)c1nc2c(cc1C(=O)Nc1c(CC)ccc(Cl)c1CC)COCC2` [Compound No. 462, 3-(3-Chloro-2,6-diethylphenyl)-aminocarbonyl-7,8-dihydro-5H-pyrano[4,3-b]pyridine-2-carboxylic Acid n-Propylamide], in data set [1], the “Pre-emergence treatment Barnyard grass (herbicidal effect)” value (shortened to “Pre-emergence treatment Barnyard grass”) is reported as 5 (Weed-killing rate is 100%.). For the same compound, in data set [2], the “Pre-emergence treatment Bulrush (herbicidal effect)” value (“Pre-emergence treatment Bulrush” below) is 5 (Weed-killing rate is 100%.). In addition, in data set [3], the “Post-emergence treatment Barnyard grass (herbicidal effect)” value (shortened to “Post-emergence treatment Barnyard grass”) is recorded as 5 (Weed-killing rate is 100%.). Also, in [4], the “Post-emergence treatment Bulrush (herbicidal effect)” value (“Post-emergence treatment Bulrush” for short) is 5 (Weed-killing rate is 100%.). Moreover, the “Post-emergence treatment Monochoria (herbicidal effect)” value (“Post-emergence treatment Monochoria” for short) in [5] is on record as 5 (Weed-killing rate is 100%.). For the same compound, the “Herbicidal effect Ec” value in data set [6] and in data set [14] was 5 (Weed-killing rate is 100%.) each time. The “Herbicidal effect Vp” value in data set [7] and in [15] was 5 (Weed-killing rate is 100%.) throughout. Moreover, the “Herbicidal effect Ga” value in data set [8] and in data set [16] was 5 (Weed-killing rate is 100%.) in each case. Moreover, the “Herbicidal effect Xs” value in data set [9] and in [17] was 5 (Weed-killing rate is 100%.) throughout. Further, the “Herbicidal effect Am” value in data set [10] and in data set [18] was 5 (Weed-killing rate is 100%.) each time. The “Herbicidal effect At” value in data set [11] and in [19] was 5 (Weed-killing rate is 100%.) throughout. For the same compound, the “Phytotoxicity So” value in [12] and in data set [20] was 5 (Crop-killing rate is 100%.) throughout. Besides, the “Phytotoxicity Wh” value in data set [13] and in data set [21] was 5 (Crop-killing rate is 100%.) each time.

In the case of `CCCNC(=O)c1cc2c(nc1C(=O)Nc1c(CC)ccc(Cl)c1CC)[S+]([O-])CC2` (stereo not drawn) [Compound No. 1028], in data set [1], the “Pre-emergence treatment Barnyard grass” value was 5 (Weed-killing rate is 100%.). For the same compound, in data set [2], the “Pre-emergence treatment Bulrush” value was 5 (Weed-killing rate is 100%.). For the same compound, in data set [3], the “Post-emergence treatment Barnyard grass” value is 5 (Weed-killing rate is 100%.). In addition, the “Post-emergence treatment Bulrush” value in data set [4] was 5 (Weed-killing rate is 100%.). The “Post-emergence treatment Monochoria” value in [5] is on record as 5 (Weed-killing rate is 100%.). In addition, the “Herbicidal effect Ec” value in [6] and in [14] was 5 (Weed-killing rate is 100%.) in each case. For the same compound, the “Herbicidal effect Vp” value in [7] and in data set [15] was 5 (Weed-killing rate is 100%.) throughout. Also, the results for the “Herbicidal effect Ga” value in data set [8] and in data set [16] were 5 (Weed-killing rate is 100%.) and 4 (Weed-killing rate is 90-99%.), respectively. Also, the “Herbicidal effect Xs” value in [9] and in data set [17] was 5 (Weed-killing rate is 100%.) each time. The “Herbicidal effect Am” value in data set [10] and in [18] was 5 (Weed-killing rate is 100%.) throughout. Further, the “Herbicidal effect At” value in data set [11] and in [19] was 5 (Weed-killing rate is 100%.) throughout. For the same compound, the “Phytotoxicity So” value in [12] and in [20] was 4 (Crop-killing rate is 90-99%.) in each case. The “Phytotoxicity Wh” value in [13] and in data set [21] was 5 (Crop-killing rate is 100%.) throughout.

As to `CCCNC(=O)c1cc2c(nc1C(=O)Nc1c(CC)ccc(Cl)c1CC)S(=O)(=O)CC2` [Compound No. 1040, 6-(3-Chloro-2,6-diethylphenyl)-aminocarbonyl-2,3-dihydro-1,1-dioxo-thieno[2,3-b]pyridine-5-carboxylic Acid n-Propylamide], the “Pre-emergence treatment Barnyard grass” value in data set [1] is recorded as 5 (Weed-killing rate is 100%.). For the same compound, in data set [2], the “Pre-emergence treatment Bulrush” value is on record as 5 (Weed-killing rate is 100%.). Further, the “Post-emergence treatment Barnyard grass” value in data set [3] is reported as 5 (Weed-killing rate is 100%.). Moreover, the “Post-emergence treatment Bulrush” value in [4] is given as 5 (Weed-killing rate is 100%.). In data set [5], the “Post-emergence treatment Monochoria” value was 5 (Weed-killing rate is 100%.). The “Herbicidal effect Ec” value in data set [6] and in [14] was 5 (Weed-killing rate is 100%.) throughout. Moreover, the “Herbicidal effect Vp” value in data set [7] and in data set [15] was 5 (Weed-killing rate is 100%.) each time. Further, the “Herbicidal effect Ga” value in data set [8] and in data set [16] was 5 (Weed-killing rate is 100%.) throughout. The “Herbicidal effect Xs” value in data set [9] and in [17] was 5 (Weed-killing rate is 100%.) in each case. Moreover, the “Herbicidal effect Am” value in data set [10] and in data set [18] was 5 (Weed-killing rate is 100%.) in each case. The “Herbicidal effect At” value in data set [11] and in [19] was 5 (Weed-killing rate is 100%.) throughout. Also, the “Phytotoxicity So” value in data set [12] and in [20] was 4 (Crop-killing rate is 90-99%.) throughout. The “Phytotoxicity Wh” value in data set [13] and in [21] was 5 (Crop-killing rate is 100%.) throughout.
